Earlier results, collected in patent publication US20240299434A1, “URIDINE TRIACETATE AMORPHOUS FORMULATION” (PHARMA CINQ. LLC, priority 2021, published 2024).
Read-outs that look alike come from different tables or passages of the source.

What was measured:
[1] = humans
[2] = mice

| oral bioavailability [1] | oral bioavailability [2] | SMILES | solubility in water |
| --- | --- | --- | --- |
| – | – | CC(=O)OC[C@H]1O[C@@H](n2ccc(=O)[nH]c2=O)[C@H](OC(C)=O)[C@@H]1OC(C)=O [Uridine triacetate, 2′,3′,5′-Tri-O-acetyluridine] | approximately 10 milligrams per milliliter |
| approximately 7% | approximately 7% | O=c1ccn([C@@H]2O[C@H](CO)[C@@H](O)[C@H]2O)c(=O)[nH]1 [uridine] | – |
